According to US12358875B2, “N-(phenyl)-indole-3-sulfonamide derivatives and related compounds as GPR17 modulators for treating CNS disorders such as multiple sclerosis” (UCB Pharma GMBH, priority 2019, dated 2025):

How the values were obtained:
GPR17 [1] = target: T1, GPR17 (Homo sapiens, UniProt Q13304); settings: WO 2005/103291; cited from earlier work
Target sequence in this assay (Q13304 whole entry, species assumed): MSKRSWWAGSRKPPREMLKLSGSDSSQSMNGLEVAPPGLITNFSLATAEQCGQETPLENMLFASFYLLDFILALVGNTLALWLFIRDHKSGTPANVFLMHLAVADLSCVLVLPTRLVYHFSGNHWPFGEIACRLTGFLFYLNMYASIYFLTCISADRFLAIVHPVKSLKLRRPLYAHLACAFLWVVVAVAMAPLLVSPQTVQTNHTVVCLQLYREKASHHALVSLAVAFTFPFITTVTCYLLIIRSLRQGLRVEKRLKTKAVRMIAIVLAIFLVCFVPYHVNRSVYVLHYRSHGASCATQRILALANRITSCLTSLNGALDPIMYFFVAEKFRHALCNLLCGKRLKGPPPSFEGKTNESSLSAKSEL

GPR17 [2] = target: T1, GPR17; experiment: Calcium mobilization functional assay (Ca2+ assay), inhibition of MDL29,951 response in CHO hGPR17; assay type: cell-based; design: host or cells: Flp-In T-REx CHO; settings: CHO hGPR17, 50 nM MDL29,951 agonist; read-out: Ca^2+ assay pIC50 (converted)
Method: (§1) Flp-In T-REx CHO cells stably expressing human GPR17 receptor (CHO hGPR17) from Evi Kostenis' lab (Bonn University, Germany) were cultured at 37° C. in a humidified atmosphere of 5% CO2. Cells were grown in DMEM with Nutrient Mixture F-12 supplemented with hygromycin B (500 μg/ml) and blasticidin (30 μg/ml). Expression from the Flp-In locus was induced by treatment with doxycycline (1 μg/ml) for 16-20 h prior assays.
GPR17 is a G-protein coupled receptor. GPR17 activation triggers Gq-type G-protein signaling resulting in endoplasmic reticulum calcium (Ca^2+) stores release in cytosol which can be measured using Calcium 5 dye, a fluorescent indicator dye of cytosolic Ca^2+ levels. The compounds of the present invention were assessed either in the Ca^2+ assay or in the GPR17 cAMP assay, described further below.
CHO hGPR17 were defrosted and seeded at a density of 20,000 cells per well into black 384-well plates with clear bottom. Cells were incubated overnight at 37° C. in a humidified atmosphere of 5% CO2. […] Fluorescent signal relative to cytosolic Ca^2+ concentration was recorded over time at room temperature in FLIPR Tetra reader. […] Inhibitory effects of varying concentrations test compounds were measured and resulting pIC50s were determined. […]
Target sequence in this assay (Q13304 29-367 limits assumed): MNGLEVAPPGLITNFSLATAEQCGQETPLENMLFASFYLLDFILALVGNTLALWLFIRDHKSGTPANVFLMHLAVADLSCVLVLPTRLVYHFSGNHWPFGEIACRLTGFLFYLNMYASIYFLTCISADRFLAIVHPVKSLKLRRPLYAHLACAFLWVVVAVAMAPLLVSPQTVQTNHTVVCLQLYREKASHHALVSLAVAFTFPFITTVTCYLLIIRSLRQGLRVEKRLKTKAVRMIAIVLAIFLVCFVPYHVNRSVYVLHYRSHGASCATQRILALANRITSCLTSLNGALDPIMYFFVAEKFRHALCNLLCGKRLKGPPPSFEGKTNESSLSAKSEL

GPR17 [3] = target: T1, GPR17; experiment: cAMP accumulation functional assay (HTRF), Schild analysis against MDL29,951 in CHO hGPR17; assay type: cell-based; design: host or cells: Flp-In T-REx CHO; settings: CHO hGPR17, Schild analysis vs MDL29,951, 5 μM forskolin; read-out: cAMP assay pA2 (converted)
Method: as §1
Target sequence in this assay (Q13304 29-367 limits assumed): as above
GPR17 activation can also recruit Gi-type G-protein signaling, resulting in a decrease of intracellular cyclic adenosine monophosphate (cAMP). Intracellular cAMP changes can be measured using the HTRF cAMP dynamic assay kit from CisBio (Codolet, France). Using homogenous time-resolved fluorescence technology (HTRF), the assay is based on competition between native cAMP produced by cells and cAMP labelled with the dye d2. The tracer binding was determined by an anti-cAMP antibody labeled with cryptate.
CHO hGPR17 were detached with PBS containing EDTA and dispatched in black 384-well plates with 5,000 cells per well. Cells were first incubated for 30 minutes at room temperature in HBSS Hepes (pH 7.4) containing vehicle or varying concentrations of test GPR17 antagonist/inverse agonist compounds. Then, a dose response curve of MDL29,951 GPR17 agonist (typically from 10^−5M to 10^−10M) was added on vehicle and on each test GPR17 antagonist/inverse agonist compound concentration in a final volume of 20 μL HBSS Hepes buffer (pH 7.4) containing 1% DMSO, 5 μM forskolin and 0.1 mM IBMX. After 60 minutes incubation at room temperature, the reaction is terminated and the cells lysed by adding the d2 detection reagent and the cryptate reagent in 10 μL lysis buffer each according to manufacturer's instructions. After 60 minutes incubation, changes in cAMP concentrations are measured according to manufacturer's instructions using an Envision plate reader with laser excitation. All incubations were performed in duplicate. Data was analyzed using GraphPad Prism software using the 4-parameter logistic equation to measure MDL29,951 pEC50s in absence and presence of GPR17 antagonist/inverse agonist test compounds. Dose ratio (DR) were plotted against antagonist concentrations and Schild analysis provided estimated affinity pA2 of GPR17 antagonist/inverse agonist test compounds.
The activities of the Example compounds tested are depicted in the table below. The activity ranges A, B and C refer to pA2 values in the cAMP assay as follows: “A”: pA2 6.5≤x<7.5, “B”: pA2 7.5≤x<8.5, “C”: 8.5≤pA2.

SMILES | IC50 (GPR17 [2]) [nM] | Kb (GPR17 [3]) [nM] | amounts needed in the assays (GPR17 activation) (GPR17 [1])
NCC(=O)CCC(=O)O [Example 5-ALA, 5 amino levulinic acid] |  |  | three digit micromolar range
NCc1[nH]cc(CCC(=O)O)c1CC(=O)O [PBG, porphobilinogen] |  |  | mM range

Now from value to compound, other results behind:

IC50 (GPR17 [2]) [nM] | Kb (GPR17 [3]) [nM] | SMILES | amounts needed in the assays (GPR17 activation) (GPR17 [1])
31.6 to 316 |  | Cn1cc(S(=O)(=O)Nc2ccc(C#N)cc2F)c2ccc(Cl)cc21 [Example I-1, 6-chloro-N-(4-cyano-2-fluorophenyl)-1-methylindole-3-sulfonamide] | 
31.6 to 316 |  | COc1nc(NS(=O)(=O)c2cn(C)c3cc(Cl)ccc23)c(F)cc1Cl [Example I-2, 6-chloro-N-(5-chloro-3-fluoro-6-methoxypyridin-2-yl)-1-methylindole-3-sulfonamide] | 
 | ≤ 3.16 | COc1nc(OC(F)F)c(F)cc1NS(=O)(=O)c1cn(CCO)c2nc(Cl)ccc12 [Example I-35, 6-chloro-N-[6-(difluoromethoxy)-5-fluoro-2-methoxypyridin-3-yl]-1-(2-hydroxyethyl)pyrrolo[2,3-b]pyridine-3-sulfonamide] | 
 | 31.6 to 316 | [N-]=[N+]=NCCn1cc(S(=O)(=O)Nc2cc(F)c(Br)cc2F)c2ccc(Cl)cc21 [Example I-36, 1-(2-azidoethyl)-N-(4-bromo-2,5-difluorophenyl)-6-chloroindole-3-sulfonamide] | 
